From patent US10781184B2, “Substituted benzazinones as antibacterial compounds” (GlaxoSmithKline Intellectual Property Development Limited, priority 2015, dated 2020)
Converted amounts (≈) assume the structure as drawn. Counter-ions that a name gives are not always drawn. Like-named read-outs stand apart in the source and are kept apart here.

Legend:
Assay in all cases: Minimum Inhibitory Concentration Assay (broth microdilution, CLSI)
Format in all cases: cell-based
[1] = system: E. coli 7623
Procedure: (§1) Methods for dilution Antimicrobial Susceptibility TestS for Bacteria that Grow Aerobically; Approved Standard-Ninth Edition; M7-A9, Vol. 32 No. 2, Clinical and Laboratory Standards Institute, Wayne, Pa.; January 2012.
(§2) Performance Standards for Antimicrobial Susceptibility Testing; Twenty-Second Informational Supplement; M100-S22 Vol. 32 No. 3; Clinical and Laboratory Standards Institute, Wayne, Pa., January 2012.
(§3) Broth microdilution was performed in accordance with the CLSI recommended procedures for aerobic bacteria [CLSI, 2012].
(§4) Comparator compound stock solutions were prepared as recommended by CLSI [CLSI, 2012]. The stock solutions of novel GSK compounds were prepared at 512 mcg/mL by dissolving the compounds in dimethyl sulfoxide (DMSO) and diluting 1:10 with sterile water. The 512 mcg/mL stock was further serially diluted in the recommended broth media for the organisms being tested. Final DMSO concentration in test wells was less than 1%.
(§5) Microtitre plates were prepared using the Microlab STAR™ (Hamilton Co., Reno, Nev.) to add media (50 μL) and the Microlab AT Plus system (Hamilton Co., Reno, Nev.) to serially dilute the compounds (final concentration range 0.125 to 128 mcg/mL) and to add inoculum. A positive growth control well containing medium and the test isolate was included on each microtitre plate. Ten microliters of the test medium from the positive growth control well was plated to determine the purity of each test isolate. A microtitre mirror reader (Cooke Instruments, Ltd., England) was used to assist in determining the microdilution MIC endpoints. The MIC was determined as the lowest concentration of compound that inhibited visible growth of the organism.

[2] = system: P. aeruginosa PA01; conditions: Pseudomonas aeruginosa
Procedure: as §1, §2, §3, §4, §5

[3] = system: K. pneumoniae 1161486
Procedure: as §1, §2, §3, §4, §5

[4] = Escherichia coli, strain 7623, broth microdilution, read-out: E. coli 7623 MIC
[5] = strain PA01, broth microdilution, read-out: P. aeruginosa PA01 MIC
[6] = Klebsiella pneumoniae, strain 1161486, broth microdilution, read-out: K. pneumoniae 1161486 MIC
[7] = Escherichia coli, 7623, read-out: E. coli 7623 MIC (ug/mL)
[8] = PA01, read-out: P. aeruginosa PA01 MIC (ug/mL)
[9] = Klebsiella pneumoniae, 1161486, read-out: K. pneumoniae 1161486 MIC (ug/mL)

SMILES: C[C@@](CCn1cnc2cc(-c3ccccc3)ccc2c1=O)(C(=O)NO)S(C)(=O)=O [Example 1, (R)—N-hydroxy-2-methyl-2-(methylsulfonyl)-4-(4-oxo-7-phenylquinazolin-3(4H)-yl)butanamide]
- MIC [1, 4]: 0.5 µg/mL (≈ 1.2 µM)
- MIC [2, 5]: 1 µg/mL (≈ 2.41 µM)
- MIC [3, 6]: 0.25 µg/mL (≈ 0.602 µM)

SMILES: Cc1ccc(-c2ccc3c(=O)n(CC[C@](C)(C(=O)NO)S(C)(=O)=O)cnc3c2)cc1 [Example 2, (R)—N-hydroxy-2-methyl-2-(methylsulfonyl)-4-(4-oxo-7-(p-tolyl)quinazolin-3(4H)-yl)butanamide]
- MIC [1, 4]: 0.06 µg/mL (≈ 0.14 µM)
- MIC [2, 5]: 0.5 µg/mL (≈ 1.16 µM)
- MIC [3, 6]: 0.125 µg/mL (≈ 0.291 µM)

SMILES: CN(C)c1ccc(-c2ccc3c(=O)n(CC[C@](C)(C(=O)NO)S(C)(=O)=O)cnc3c2)cc1 [Example 4, (R)-4-(7-(4-(dimethylamino)phenyl)-4-oxoquinazolin-3(4H)-yl)-N-hydroxy-2-methyl-2-(methylsulfonyl)butanamide Trifluoroacetic Acid Salt]
- MIC [1, 7]: ≤ 0.03 µg/mL
- MIC [2, 8]: 8 µg/mL
- MIC [3, 9]: 0.25 µg/mL

SMILES: C[C@@](CCn1cnc2cc(-c3ccc(OC(F)F)cc3)ccc2c1=O)(C(=O)NO)S(C)(=O)=O [Example 5, (R)-4-(7-(4-(difluoromethoxy)phenyl)-4-oxoquinazolin-3(4H)-yl)-N-hydroxy-2-methyl-2-(methylsulfonyl)butanamide]
- MIC [1, 4]: ≤ 0.03 µg/mL
- MIC [2, 5]: 2 µg/mL (≈ 4.15 µM)
- MIC [3, 6]: 0.06 µg/mL (≈ 0.125 µM)

SMILES: C[C@@](CCn1cnc2cc(-c3cccc(F)c3F)ccc2c1=O)(C(=O)NO)S(C)(=O)=O [Example 6, (R)-4-(7-(2,3-difluorophenyl)-4-oxoquinazolin-3(4H)-yl)-N-hydroxy-2-methyl-2-(methylsulfonyl)butanamide]
- MIC [1, 4]: ≤ 0.032 µg/mL
- MIC [2, 5]: 0.5 µg/mL (≈ 1.11 µM)
- MIC [3, 6]: 0.125 µg/mL (≈ 0.277 µM)

SMILES: C[C@@](CCn1cnc2cc(-c3cc(F)ccc3F)ccc2c1=O)(C(=O)NO)S(C)(=O)=O [Example 7, (R)-4-(7-(2,5-difluorophenyl)-4-oxoquinazolin-3(4H)-yl)-N-hydroxy-2-methyl-2-(methylsulfonyl)butanamide]
- MIC [1, 4]: 0.06 µg/mL (≈ 0.133 µM)
- MIC [2, 5]: 2 µg/mL (≈ 4.43 µM)
- MIC [3, 6]: 0.25 µg/mL (≈ 0.554 µM)

SMILES: C[C@@](CCn1cnc2cc(-c3ccccc3F)ccc2c1=O)(C(=O)NO)S(C)(=O)=O [Example 8, (R)-4-(7-(2-fluorophenyl)-4-oxoquinazolin-3(4H)-yl)-N-hydroxy-2-methyl-2-(methylsulfonyl)butanamide]
- MIC [1, 4]: ≤ 0.03 µg/mL
- MIC [2, 5]: 0.5 µg/mL (≈ 1.15 µM)
- MIC [3, 6]: 0.125 µg/mL (≈ 0.288 µM)

SMILES: Cc1ccc(-c2ccc3c(=O)n(CC[C@](C)(C(=O)NO)S(C)(=O)=O)cnc3c2)cc1F [Example 9, (R)-4-(7-(3-fluoro-4-methylphenyl)-4-oxoquinazolin-3(4H)-yl)-N-hydroxy-2-methyl-2-(methylsulfonyl)butanamide]
- MIC [1, 4]: ≤ 0.03 µg/mL
- MIC [2, 5]: 8 µg/mL (≈ 17.9 µM)
- MIC [3, 6]: 0.125 µg/mL (≈ 0.279 µM)

SMILES: C[C@@](CCn1cnc2cc(-c3ccc(C(F)F)cc3)ccc2c1=O)(C(=O)NO)S(C)(=O)=O [Example 10, (R)-4-(7-(4-(difluoromethyl)phenyl)-4-oxoquinazolin-3(4H)-yl)-N-hydroxy-2-methyl-2-(methylsulfonyl)butanamide]
- MIC [1, 4]: 0.06 µg/mL (≈ 0.129 µM)
- MIC [2, 5]: 1 µg/mL (≈ 2.15 µM)
- MIC [3, 6]: 0.25 µg/mL (≈ 0.537 µM)

SMILES: Cc1ccc(-c2cc3ncn(CC[C@](C)(C(=O)NO)S(C)(=O)=O)c(=O)c3cc2F)cc1 [Example 15, (2R)-4-[6-fluoro-7-(4-methylphenyl)-4-oxo-3,4-dihydroquinazolin-3-yl]-N-hydroxy-2-methanesulfonyl-2-methylbutanamide]
- MIC [1, 4]: < 0.03 µg/mL
- MIC [2, 5]: 0.5 µg/mL (≈ 1.12 µM)
- MIC [3, 6]: 0.063 µg/mL (≈ 0.141 µM)

SMILES: COc1ccc(-c2cc(F)c3c(=O)n(CC[C@](C)(C(=O)NO)S(C)(=O)=O)cnc3c2)cc1 [Example 16, (2R)-4-[5-fluoro-7-(4-methoxyphenyl)-4-oxo-3,4-dihydroquinazolin-3-yl]-N-hydroxy-2-methanesulfonyl-2-methylbutanamide]
- MIC [1, 4]: 0.25 µg/mL (≈ 0.539 µM)
- MIC [2, 5]: 8 µg/mL (≈ 17.3 µM)
- MIC [3, 6]: 1 µg/mL (≈ 2.16 µM)

SMILES: Cc1ccc(-c2ccc3c(=O)n(CC[C@](C)(C(=O)NO)S(C)(=O)=O)nnc3c2)cc1 [Example 18, (2R)—N-hydroxy-2-methanesulfonyl-2-methyl-4-[7-(4-methylphenyl)-4-oxo-3,4-dihydro-1,2,3-benzotriazin-3-yl]butanamide]
- MIC [1, 4]: 0.5 µg/mL (≈ 1.16 µM)
- MIC [2, 5]: 16 µg/mL (≈ 37.2 µM)
- MIC [3, 6]: 1 µg/mL (≈ 2.32 µM)

SMILES: Cc1ccc(-c2ccc3c(=O)n(CC[C@](C)(C(=O)NO)S(C)(=O)=O)nnc3c2)c(F)c1 [Example 19, (2R)-4-[7-(2-fluoro-4-methylphenyl)-4-oxo-3,4-dihydro-1,2,3-benzotriazin-3-yl]-N-hydroxy-2-methanesulfonyl-2-methylbutanamide]
- MIC [1, 4]: 0.125 µg/mL (≈ 0.279 µM)
- MIC [2, 5]: 8 µg/mL (≈ 17.8 µM)
- MIC [3, 6]: 0.25 µg/mL (≈ 0.557 µM)

SMILES: C[C@@](CCn1cnc2cc(-c3ccc(CN4CCOCC4)cc3)c(F)cc2c1=O)(C(=O)NO)S(C)(=O)=O [Example 20, (R)-4-(6-fluoro-7-(4-(morpholinomethyl)phenyl)-4-oxoquinazolin-3(4H)-yl)-N-hydroxy-2-methyl-2-(methylsulfonyl)butanamide hydrochloride]
- MIC [1, 7]: 0.125 µg/mL
- MIC [2, 8]: 4 µg/mL
- MIC [3, 9]: 0.25 µg/mL

SMILES: C[C@@](CCn1cnc2cc(-c3ccc(CCN4CCOCC4)cc3)c(F)cc2c1=O)(C(=O)NO)S(C)(=O)=O [Example 21, (2R)-4-(6-fluoro-7-{4-[2-(morpholin-4-yl)ethyl]phenyl}-4-oxo-3,4-dihydroquinazolin-3-yl)-N-hydroxy-2-methanesulfonyl-2-methylbutanamide]
- MIC [1, 4]: 0.063 µg/mL (≈ 0.115 µM)
- MIC [2, 5]: 4 µg/mL (≈ 7.32 µM)
- MIC [3, 6]: 0.5 µg/mL (≈ 0.915 µM)

SMILES: CN(Cc1ccc(-c2cc3ncn(CC[C@](C)(C(=O)NO)S(C)(=O)=O)c(=O)c3cc2F)cc1)C1CC1 [Example 22, (2R)-4-[7-(4-{[cyclopropyl(methyl)amino]methyl}phenyl)-6-fluoro-4-oxo-3,4-dihydroquinazolin-3-yl]-N-hydroxy-2-methanesulfonyl-2-methylbutanamide]
- MIC [1, 4]: < 0.03 µg/mL
- MIC [2, 5]: 8 µg/mL (≈ 15.5 µM)
- MIC [3, 6]: 0.25 µg/mL (≈ 0.484 µM)

SMILES: COCCN(C)Cc1ccc(-c2cc3ncn(CC[C@](C)(C(=O)NO)S(C)(=O)=O)c(=O)c3cc2F)c(F)c1 [Example 23, (2R)-4-[6-fluoro-7-(2-fluoro-4-{[(2-methoxyethyl)(methyl)amino]methyl}phenyl)-4-oxo-3,4-dihydroquinazolin-3-yl]-N-hydroxy-2-methanesulfonyl-2-methylbutanamide]
- MIC [1, 4]: 0.25 µg/mL (≈ 0.452 µM)
- MIC [2, 5]: 4 µg/mL (≈ 7.24 µM)
- MIC [3, 6]: 0.5 µg/mL (≈ 0.905 µM)

SMILES: COC1CN(CCc2ccc(-c3cc4ncn(CC[C@](C)(C(=O)NO)S(C)(=O)=O)c(=O)c4cc3F)c(F)c2F)C1 [Example 24, (2R)-4-(7-{2,3-difluoro-4-[2-(3-methoxyazetidin-1-yl)ethyl]phenyl}-6-fluoro-4-oxo-3,4-dihydroquinazolin-3-yl)-N-hydroxy-2-methanesulfonyl-2-methylbutanamide]
- MIC [1, 4]: 0.25 µg/mL (≈ 0.429 µM)
- MIC [2, 5]: 2 µg/mL (≈ 3.43 µM)
- MIC [3, 6]: 1 µg/mL (≈ 1.72 µM)

SMILES: C[C@@](CCn1cnc2cc(-c3ccc(CNC4CC4)cc3F)c(F)cc2c1=O)(C(=O)NO)S(C)(=O)=O [Example 25, (2R)-4-(7-{4-[(cyclopropylamino)methyl]-2-fluorophenyl}-6-fluoro-4-oxo-3,4-dihydroquinazolin-3-yl)-N-hydroxy-2-methanesulfonyl-2-methylbutanamide]
- MIC [1, 4]: 0.063 µg/mL (≈ 0.121 µM)
- MIC [2, 5]: 1 µg/mL (≈ 1.92 µM)
- MIC [3, 6]: 0.5 µg/mL (≈ 0.961 µM)
